# Assay results: patent US11459307B2, “Heterocyclic compounds for the inhibition of PASK” (BioEnergenix LLC, priority 2009, dated 2022)
# Key:
# [1] = system: high fat diet fed C57Bl6 mice; experiment: Mouse High Fat Dietary Model with fast/re-feed; format: in vivo; details: for reduced body weight vs Vehicle: fast/re-feed
# Method: A standard model of human hyperlipidemia and insulin resistance is the mouse fed a high fat diet for several weeks (31, 33). Additionally, since hepatic lipid synthesis is known to be regulated by food consumption, the fast/re-feed cycle of Horton et al. (32) was incorporated into the chronic high fat diet model. The compound was evaluated in this model as an agent to restore insulin sensitivity and lower blood lipids. The chronic high fat diet was fed to mice to simulate a standard Western diet which is elevated in calories from high fat and carbohydrate intake. This and similar models of dietary induced obesity, insulin insensitivity and elevated serum lipids and cholesterol are used as mouse and rat models of human pathology including hyperlipidemia, type II diabetes, atherosclerosis, obesity, cardiovascular and liver disease. These models have been used as excellent predictors of efficacy in human clinical trials (PPAR and FXR agonists).
# The farnesoid X receptor (FXR) is a ligand-activated transcription factor and a member of the nuclear receptor superfamily. […] While the mechanism of action of FXR agonists is clearly distinct from PASK inhibition, WAY-362450 has been used as a positive control compound producing physiologically beneficial changes in glucose and lipid metabolism resembling inhibition of PASK. Throughout these in vivo assays, WAY-362450 has been used as a control compound, and will be referred to as such.
# Male C57Bl6 mice were obtained from Jackson Laboratories and had been fed a high fat diet (60% kcal fat) for eight weeks. The mice were fed an identical high fat diet (Research Diet D12492) upon arrival and during the study. All mice were treated with the subject compound at 30 or 100 mg/kg, control compound (WAY-362450) at 30 mg/kg or vehicle by oral gavage daily for three days. On the final day, 10 animals from each group began an 24 hour fast and then were sacrificed (fasted groups 1a,2a,3a,4a). Alternatively, 10 animals from each group underwent a 24 hour fast followed by a 12 hour re-feed period with the same high fat diet ad libitum and then were sacrificed (re-fed groups 1b,2b,3b,4b).
# Body weights were monitored at the start and end of the protocol. After completing the fast or fast/re-feed conditions, the mice were given avertin for anesthesia by intraperitoneal administration. Whole blood was collected by cardiac puncture and the mice were terminated by cervical dislocation. Livers were collected surgically, weighed and immediately frozen in liquid nitrogen. The blood was placed in Li-heparin treated tubes, centrifuged to collect plasma and the plasma frozen.
# The plasma was analyzed by standard colorimetric assays for glucose, insulin, triglycerides and cholesterol. Frozen liver samples were pulverized and extracted in ethanolic KOH and analyzed for liver triglycerides and cholesterol.
# [2] = system: high fructose diet fed Sprague Dawley rats; experiment: Rat High Fructose Model with Fast/Re-Feed; format: in vivo
# Method: Another standard model of human hyperlipidemia and insulin resistance is the rat fed a high fructose diet for several weeks (33). Additionally, since hepatic lipid synthesis is known to be regulated by food consumption, the fast/reefed cycle of Horton et al. (32) was incorporated into the chronic high fructose diet model. A compound disclosed above was evaluated in this model as an agent to restore insulin sensitivity and lower blood lipids.
# Eight week old male Sprague Dawley rats were purchased from Harlan, Inc. The rats weighed 200-225 g upon arrival and were divided into groups as detailed in Table 2 and were immediately placed on a high fructose diet (60% kcal fructose; Open Source Diet #D00111301) ad libitum for three weeks. During the last week of feeding the high fructose diet, the rats were dosed with vehicle (5% solutol, 8% β cyclo-dextrin), subject compound at 30 mg/kg or 100 mg/kg or the control compound at 30 mg/kg by oral gavage once daily for 7 days. On the final day, all animals were placed on a […] followed by a 12 hour re-feed period on the high fructose diet ad libitum. Body weights were monitored throughout the protocol. After completing the fast or fast/re-feed conditions, the rats were given avertin for anesthesia by intraperitoneal administration. Whole blood was collected by cardiac puncture and the rats were terminated by cervical dislocation. Livers were collected surgically, weighed and immediately frozen in liquid nitrogen. The blood was placed in Li-heparin treated tubes, centrifuged to collect plasma and the plasma frozen.
# The plasma was analyzed by standard colorimetric assays for glucose, insulin, triglycerides and cholesterol.
# [3] = 30 mg/kg oral once daily for 7 days
# [4] = 100 mg/kg oral once daily for 7 days
# [5] = fast and re-feed, 30 mg/kg for 7 days
# [6] = fast and re-feed, 100 mg/kg for 7 days
structure (smiles),measurement,setting,value
CC(C)N(C)c1nc2cc(C(=O)O)ccc2nc1-c1ccc(F)cc1 [subject compound],reductions in liver weights,[1]; 30 and 100 mg/kg oral daily for three days,7-9%
same,decreased plasma glucose vs vehicle,"[1]; fast and re-feed, 100 mg/kg (highest dose)",up to 21%
same,reduced body weight vs Vehicle,[1]; 30 mg/kg oral gavage daily for three days,2.7%
same,reduced body weight vs Vehicle,[1]; 100 mg/kg oral gavage daily for three days,5.1%
same,decreased plasma insulin vs vehicle,"[1]; fasted and re-fed, 30 mg/kg",10%
same,decreased plasma insulin vs vehicle,"[1]; fasted and re-fed, 100 mg/kg",28%
same,decreased plasma glucose vs vehicle,"[1]; fasted only, 30 mg/kg",30%
same,decreased body weight vs Vehicle Fasted,"[1]; fasted only, 30 mg/kg oral daily for three days",1.8%
same,decreased plasma glucose vs vehicle,"[1]; fasted only, 100 mg/kg",43%
same,decreased body weight vs Vehicle Fasted,"[1]; fasted only, 100 mg/kg oral daily for three days",5.1%
same,decreased plasma insulin vs vehicle,"[1]; fasted only, 30 and 100 mg/kg",up to 26%
same,body weight relative to the Vehicle group (FIG. 1),[2]; [3],modest increase in body weight
same,body weight relative to the Vehicle group (FIG. 1),[2]; [4],modest decrease in body weight
same,maximal reduction in liver weight,[2]; [4],about 4%
same,decrease in plasma glucose vs vehicle,[2]; [5],21.5%
same,insulin levels reduced vs vehicle,[2]; [5],15.4%
same,plasma cholesterol decreased vs vehicle,[2]; [5],5.7%
same,decrease in plasma glucose vs vehicle,[2]; [6],26.3%
same,insulin levels reduced vs vehicle,[2]; [6],31.4%
same,plasma cholesterol decreased vs vehicle,[2]; [6],10%
"CC(C)OC(=O)C1=CN(C(=O)c2ccc(F)c(F)c2)CC(C)(C)c2c1[nH]c1ccccc21 [control compound, WAY-362450, reference compound]",effects on liver weight,[1]; 30 mg/kg oral daily for three days,identical to those of the subject compound at the same dose
same,body weight relative to the Vehicle group (FIG. 1),[2]; [3],significant increase in body weight
same,increase in liver weight,[2]; [3],about 2 g
same,increased liver weights,[2]; [3],about 15%
same,effect on plasma glucose concentrations,[2]; [5],did not alter plasma glucose concentrations
